Data from ChEMBL document CHEMBL3414526, “Selective, nontoxic CB(2) cannabinoid o-quinone with in vivo activity against triple-negative breast cancer” (J Med Chem, 2015).
The source made the active and inactive calls. No cut-off for these calls is given here.

Key:
MDA-MB-231 [1] = assay: Antiproliferative activity against human MDA-MB-231 cells after 48 hrs by MTT assay; assay type: functional, cell-based; conditions: MDA-MB-231, 48 h
Cannabinoid receptor 1 = Cannabinoid receptor 1 (Homo sapiens, UniProt P21554); assay: Displacement of [3H]CP55940 from human CB1 receptor transfected in HEK293 cells after 90 mins by liquid scintillation spectrophotometry; assay type: cell-based
Cannabinoid receptor 1, sequence (P21554 whole entry): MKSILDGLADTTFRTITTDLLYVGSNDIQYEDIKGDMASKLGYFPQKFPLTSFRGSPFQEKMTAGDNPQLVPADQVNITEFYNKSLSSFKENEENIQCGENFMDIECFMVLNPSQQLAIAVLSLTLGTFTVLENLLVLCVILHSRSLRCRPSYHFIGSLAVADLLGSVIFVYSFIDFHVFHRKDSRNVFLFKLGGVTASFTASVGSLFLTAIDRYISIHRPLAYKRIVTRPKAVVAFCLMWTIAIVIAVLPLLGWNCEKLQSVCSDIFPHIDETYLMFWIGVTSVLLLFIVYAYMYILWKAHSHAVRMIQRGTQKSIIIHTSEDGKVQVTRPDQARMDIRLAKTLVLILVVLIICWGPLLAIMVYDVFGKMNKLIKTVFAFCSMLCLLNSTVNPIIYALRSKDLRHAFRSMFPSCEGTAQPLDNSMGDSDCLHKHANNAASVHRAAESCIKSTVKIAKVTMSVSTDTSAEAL

Cannabinoid receptor 2 = Cannabinoid receptor 2 (Homo sapiens, UniProt P34972); assay: Displacement of [3H]CP55940 from human CB2 receptor transfected in HEK293 cells after 90 mins by liquid scintillation spectrophotometry; assay type: cell-based
Cannabinoid receptor 2, sequence (P34972 whole entry): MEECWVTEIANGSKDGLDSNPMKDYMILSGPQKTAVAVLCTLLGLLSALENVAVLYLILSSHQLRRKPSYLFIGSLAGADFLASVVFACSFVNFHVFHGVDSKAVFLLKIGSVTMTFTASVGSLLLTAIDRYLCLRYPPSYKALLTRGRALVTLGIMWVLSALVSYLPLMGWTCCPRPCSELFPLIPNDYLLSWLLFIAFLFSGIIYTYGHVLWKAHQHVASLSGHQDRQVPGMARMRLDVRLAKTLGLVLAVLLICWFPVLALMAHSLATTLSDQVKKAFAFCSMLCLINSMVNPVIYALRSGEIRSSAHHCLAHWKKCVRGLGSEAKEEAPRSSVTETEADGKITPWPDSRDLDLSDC

MDA-MB-468 = assay: Antiproliferative activity against human MDA-MB-468 cells after 48 hrs by MTT assay; assay type: functional, cell-based; conditions: MDA-MB-468, 48 h
HMEC = assay: Antiproliferative activity against HMEC at 2 to 30 uM after 48 hrs by MTT assay; assay type: cell-based; conditions: human
MDA-MB-231 [2] = assay: Antitumor activity against human MDA-MB-231 cells xenografted in nude mouse assessed as reduction in tumor growth at 2 mg/kg, ip administered 3 times a week for 4 weeks relative to control; assay type: functional, organism-based; parameters: dose 2 mg/kg
Mus musculus [3] = assay: Toxicity in nude mouse xenografted with human MDA-MB-231 cells assessed as toxicity in spleen at 2 mg/kg, ip administered 3 times a week for 4 weeks; assay type: organism-based; parameters: dose 2 mg/kg, route intraperitoneal; conditions: in vivo, 672 h
MDA-MB-231 [4] = assay: Antitumor activity against human MDA-MB-231 cells xenografted in nude mouse assessed as reduction in tumor weight at 2 mg/kg, ip administered 3 times a week for 4 weeks relative to control; assay type: functional, organism-based; parameters: dose 2 mg/kg
MDA-MB-231 [5] = assay: Antiproliferative activity against human MDA-MB-231 cells at IC50 after 48 hrs by MTT assay in presence of SR144528; assay type: functional, cell-based
[6] = Antiproliferative activity against human SUM149 cells after 48 hrs by MTT assay; assay type: functional, cell-based; conditions: SUM149PT
MDA-MB-231 [7] = assay: Antiproliferative activity against human MDA-MB-231 cells at IC50 after 48 hrs by MTT assay in presence of CDI16020046; assay type: functional, cell-based
[8] = Antiproliferative activity against human SUM159 cells after 48 hrs by MTT assay; assay type: functional, cell-based; conditions: SUM-159-PT
MDA-MB-231 [9] = assay: Antiproliferative activity against human MDA-MB-231 cells at IC50 after 48 hrs by MTT assay in presence of alpha-tocopherol; assay type: functional, cell-based
MDA-MB-231 [10] = assay: Induction of apoptosis in human MDA-MB-231 cells assessed as increase in active caspase-3 level at IC50 after 48 hrs by Western blotting analysis; assay type: functional, cell-based
MDA-MB-231 [11] = assay: Antiproliferative activity against human MDA-MB-231 cells at IC50 after 48 hrs by MTT assay in presence of SR141716; assay type: functional, cell-based
Mus musculus [12] = assay: Toxicity in nude mouse xenografted with human MDA-MB-231 cells assessed as toxicity in heart at 2 mg/kg, ip administered 3 times a week for 4 weeks; assay type: organism-based; parameters: dose 2 mg/kg, route intraperitoneal; conditions: in vivo, 672 h
Mus musculus [13] = assay: Toxicity in nude mouse xenografted with human MDA-MB-231 cells assessed as toxicity in lungs at 2 mg/kg, ip administered 3 times a week for 4 weeks; assay type: organism-based; parameters: dose 2 mg/kg, route intraperitoneal; conditions: in vivo, 672 h
MDA-MB-231 [14] = assay: Antitumor activity against human MDA-MB-231 cells xenografted in nude mouse assessed as reduction in tumor volume at 2 mg/kg, ip administered 3 times a week for 4 weeks relative to control; assay type: functional, organism-based; parameters: dose 2 mg/kg
Mus musculus [15] = assay: Toxicity in nude mouse xenografted with human MDA-MB-231 cells assessed as toxicity in liver at 2 mg/kg, ip administered 3 times a week for 4 weeks; assay type: organism-based; parameters: dose 2 mg/kg, route intraperitoneal; conditions: in vivo, 672 h
MDA-MB-231 [16] = assay: Antiproliferative activity against human MDA-MB-231 cells after 72 hrs by MTT assay; assay type: functional, cell-based; conditions: MDA-MB-231, 72 h

Work on `CCCCCCC(C)(C)C1=CC(=O)C2=C(OC(C)(C)c3cn(C)nc32)C1=O` yielded an IC50 (MDA-MB-231 [1]) of 5.8 µM.
Compound `CCCCCCC(C)(C)C1=CC(=O)C2=C(OC(C)(C)c3cn(CC)nc32)C1=O` has an IC50 (MDA-MB-231 [1]) of 2.5 µM.
For `CCCCCCC(C)(C)C1=CC2=C(C(=O)C1=O)c1nn(C)cc1C(C)(C)O2`, the IC50 (MDA-MB-231 [1]) was 5 µM, the Ki (Cannabinoid receptor 1) was > 40 µM and the Ki (Cannabinoid receptor 2) was 0.597 µM.
With `CCCCCCC(C)(C)C1=CC(=O)C2=C(OC(C)(C)c3c[nH]nc32)C1=O` the IC50 (MDA-MB-231 [1]) was 8.2 µM.
With `CCCCCCC(C)(C)C1=CC2=C(C(=O)C1=O)c1c(cnn1CC)C(C)(C)O2` the IC50 (MDA-MB-468) was 17.3 µM, the Activity (HMEC) was “Non-toxic” and the Activity (MDA-MB-231 [2]) was “Active”. For the same compound, the Activity (Mus musculus [3]) was “Non-toxic”, the Activity (MDA-MB-231 [4]) was “Active” and the Activity (MDA-MB-231 [5]) was “inactive”. The IC50 [6] was 4.6 µM, the Activity (MDA-MB-231 [7]) was “Active” and the IC50 [8] was 4.1 µM. The Activity (MDA-MB-231 [9]) was “inactive”, the Activity (MDA-MB-231 [10]) was “Active” and the Activity (MDA-MB-231 [11]) was “Active”. The Activity (Mus musculus [12]) was “Non-toxic”, the Activity (Mus musculus [13]) was “Non-toxic” and the Activity (MDA-MB-231 [14]) was “Active”. The IC50 (MDA-MB-231 [1]) was 2.8 µM, the Ki (Cannabinoid receptor 1) was > 40 µM and the Ki (Cannabinoid receptor 2) was 0.529 µM. The Activity (Mus musculus [15]) was “Non-toxic”.
In the case of `CCCCCc1cc(O)c2c(c1)OC(C)(C)[C@@H]1CCC(C)=C[C@@H]21` [DRONABINOL], the IC50 (MDA-MB-231 [16]) is reported as 5 µM.
In the case of `CCCCCCC(C)(C)C1=CC2=C(C(=O)C1=O)c1[nH]ncc1C(C)(C)O2`, the IC50 (MDA-MB-231 [1]) is reported as 8.5 µM, the Ki (Cannabinoid receptor 1) is reported as > 40 µM and the Ki (Cannabinoid receptor 2) is reported as 0.398 µM.
